Values quoted from earlier work, collected in US9125860B2, “Phosphate free oral care compositions based on magnolia antibacterial agent” (Colgate-Palmolive Company, priority 2010, dated 2015).

Test system: S. mutans, F. nucleatum, V. parvula, A. naslundii, P. gingivitis
Conditions: representative oral bacteria; values not given

Molecule | bactericidal properties in MIC test, in words
CCCCc1ccc(O)c(-c2cc(CCCC)ccc2O)c1 [butylmagnolol] | demonstrated bactericidal properties
C=CCc1ccc(O)c(-c2ccc(O)c(CC=C)c2)c1 [honokiol] | demonstrated bactericidal properties
CC(C)c1ccc(O)c(-c2cc(C(C)C)ccc2O)c1 [isopropylmagnolol] | demonstrated bactericidal properties
C=CCc1ccc(O)c(-c2cc(CC=C)ccc2O)c1 [magnolol] | demonstrated bactericidal properties
CCCc1ccc(O)c(-c2ccc(O)c(CCC)c2)c1 [tetrahydrohonokiol] | demonstrated bactericidal properties
CCCc1ccc(O)c(-c2cc(CCC)ccc2O)c1 [tetrahydromagnolol] | demonstrated bactericidal properties
butylhonokiol | demonstrated bactericidal properties
isopropylhonokiol | demonstrated bactericidal properties
propylhonokiol | demonstrated bactericidal properties
propylmagnolol | demonstrated bactericidal properties
